Test [1] deals with T1, Mitogen-activated protein kinase kinase kinase 5 (Homo sapiens) (UniProt Q99683).
T1 sequence (whole entry): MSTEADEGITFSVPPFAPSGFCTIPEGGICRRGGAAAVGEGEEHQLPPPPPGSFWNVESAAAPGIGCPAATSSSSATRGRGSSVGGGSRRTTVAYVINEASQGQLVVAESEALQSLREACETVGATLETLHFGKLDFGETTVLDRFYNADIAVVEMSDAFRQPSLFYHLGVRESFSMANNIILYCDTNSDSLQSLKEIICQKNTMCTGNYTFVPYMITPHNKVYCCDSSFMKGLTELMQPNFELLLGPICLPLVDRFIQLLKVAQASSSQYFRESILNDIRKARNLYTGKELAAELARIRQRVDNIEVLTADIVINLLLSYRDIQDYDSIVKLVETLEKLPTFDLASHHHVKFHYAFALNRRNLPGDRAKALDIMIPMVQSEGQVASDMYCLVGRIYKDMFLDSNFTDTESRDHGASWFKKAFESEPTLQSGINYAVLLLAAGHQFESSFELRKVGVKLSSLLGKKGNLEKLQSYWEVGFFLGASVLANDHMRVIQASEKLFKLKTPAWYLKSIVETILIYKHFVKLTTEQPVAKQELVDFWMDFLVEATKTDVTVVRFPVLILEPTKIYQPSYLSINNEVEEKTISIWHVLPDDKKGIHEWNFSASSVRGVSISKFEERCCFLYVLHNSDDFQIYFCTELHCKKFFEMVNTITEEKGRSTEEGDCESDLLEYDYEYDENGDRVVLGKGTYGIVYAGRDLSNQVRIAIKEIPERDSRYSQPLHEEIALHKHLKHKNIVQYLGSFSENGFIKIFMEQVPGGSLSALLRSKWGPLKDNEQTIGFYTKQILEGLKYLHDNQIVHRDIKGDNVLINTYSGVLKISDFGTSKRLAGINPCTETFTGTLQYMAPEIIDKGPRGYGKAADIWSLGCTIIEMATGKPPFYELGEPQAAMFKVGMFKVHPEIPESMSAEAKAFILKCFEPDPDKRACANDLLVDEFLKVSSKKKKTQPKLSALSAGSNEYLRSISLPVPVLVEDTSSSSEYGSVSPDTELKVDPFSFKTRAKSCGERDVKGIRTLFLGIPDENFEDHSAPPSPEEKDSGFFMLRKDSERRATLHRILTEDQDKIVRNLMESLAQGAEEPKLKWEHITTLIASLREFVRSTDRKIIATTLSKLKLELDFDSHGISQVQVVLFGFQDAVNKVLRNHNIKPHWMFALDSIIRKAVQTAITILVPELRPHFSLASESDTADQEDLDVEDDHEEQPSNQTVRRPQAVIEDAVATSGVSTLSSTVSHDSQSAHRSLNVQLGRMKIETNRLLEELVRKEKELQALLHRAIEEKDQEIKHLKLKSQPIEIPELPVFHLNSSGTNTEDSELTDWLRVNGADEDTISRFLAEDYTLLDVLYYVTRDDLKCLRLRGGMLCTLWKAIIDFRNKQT
Description: Selectivity interaction (KinomeScan (DiscoverX)) EUB0000090b MAP3K5. The following applies: at 1 µM.

Test [2] has as its target Eukaryotic translation initiation factor 2-alpha kinase 1 (Homo sapiens) (UniProt Q9BQI3). The test can be described thus: Selectivity interaction (KinomeScan (DiscoverX)) EUB0001619a EIF2AK1. The following applies: at 1 µM.
Test [3] concerns the target T2, Muscle, skeletal receptor tyrosine-protein kinase (Homo sapiens) (UniProt O15146).
T2 sequence (whole entry): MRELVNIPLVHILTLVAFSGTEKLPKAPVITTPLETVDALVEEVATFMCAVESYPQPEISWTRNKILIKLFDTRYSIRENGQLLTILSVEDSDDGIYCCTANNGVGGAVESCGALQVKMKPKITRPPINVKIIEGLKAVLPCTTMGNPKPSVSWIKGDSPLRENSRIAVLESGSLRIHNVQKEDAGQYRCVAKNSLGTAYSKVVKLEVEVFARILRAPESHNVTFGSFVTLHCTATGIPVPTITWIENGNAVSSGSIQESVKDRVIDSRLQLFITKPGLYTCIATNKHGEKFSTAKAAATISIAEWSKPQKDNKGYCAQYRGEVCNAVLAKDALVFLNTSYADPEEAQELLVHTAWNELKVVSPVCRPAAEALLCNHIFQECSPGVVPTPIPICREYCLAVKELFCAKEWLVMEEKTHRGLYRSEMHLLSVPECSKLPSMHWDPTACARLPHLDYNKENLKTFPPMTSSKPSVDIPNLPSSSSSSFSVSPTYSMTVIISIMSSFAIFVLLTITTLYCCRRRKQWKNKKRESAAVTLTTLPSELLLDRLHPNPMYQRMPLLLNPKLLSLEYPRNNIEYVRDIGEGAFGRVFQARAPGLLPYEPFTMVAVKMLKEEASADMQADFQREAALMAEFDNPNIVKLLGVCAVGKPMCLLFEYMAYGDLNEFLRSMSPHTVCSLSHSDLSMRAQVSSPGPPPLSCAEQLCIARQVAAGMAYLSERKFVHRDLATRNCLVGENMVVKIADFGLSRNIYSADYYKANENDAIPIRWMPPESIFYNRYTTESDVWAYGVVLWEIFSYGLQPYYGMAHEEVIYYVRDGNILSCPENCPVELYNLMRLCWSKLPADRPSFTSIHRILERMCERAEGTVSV
Description: Selectivity interaction (KinomeScan (DiscoverX)) EUB0001619a MUSK. The following applies: at 1 µM.

Test [4] concerns the target T3, Protein kinase C iota type (Homo sapiens) (UniProt P41743).
T3 sequence (whole entry): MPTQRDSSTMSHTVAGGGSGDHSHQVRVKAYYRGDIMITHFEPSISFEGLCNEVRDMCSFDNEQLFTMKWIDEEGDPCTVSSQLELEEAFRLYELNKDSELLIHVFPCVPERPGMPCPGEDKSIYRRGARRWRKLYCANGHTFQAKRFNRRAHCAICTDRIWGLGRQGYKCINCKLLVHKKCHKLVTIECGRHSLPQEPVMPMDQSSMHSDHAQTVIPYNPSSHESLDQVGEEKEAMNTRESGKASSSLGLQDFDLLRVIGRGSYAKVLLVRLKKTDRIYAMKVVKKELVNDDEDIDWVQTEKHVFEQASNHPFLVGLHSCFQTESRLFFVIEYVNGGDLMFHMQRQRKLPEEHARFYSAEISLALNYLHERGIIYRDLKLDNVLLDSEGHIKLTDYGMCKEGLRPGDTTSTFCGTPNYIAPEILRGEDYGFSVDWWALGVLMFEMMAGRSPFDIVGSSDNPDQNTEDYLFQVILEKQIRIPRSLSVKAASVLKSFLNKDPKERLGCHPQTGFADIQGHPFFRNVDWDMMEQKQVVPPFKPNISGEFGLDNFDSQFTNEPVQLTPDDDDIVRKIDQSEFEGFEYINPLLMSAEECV
The test can be described thus: Selectivity interaction (KinomeScan (DiscoverX)) EUB0000618a PRKCI. The following applies: at 10 µM.

Eukaryotic translation initiation factor 2-alpha kinase 1 (Homo sapiens), sequence (Q9BQI3 whole entry): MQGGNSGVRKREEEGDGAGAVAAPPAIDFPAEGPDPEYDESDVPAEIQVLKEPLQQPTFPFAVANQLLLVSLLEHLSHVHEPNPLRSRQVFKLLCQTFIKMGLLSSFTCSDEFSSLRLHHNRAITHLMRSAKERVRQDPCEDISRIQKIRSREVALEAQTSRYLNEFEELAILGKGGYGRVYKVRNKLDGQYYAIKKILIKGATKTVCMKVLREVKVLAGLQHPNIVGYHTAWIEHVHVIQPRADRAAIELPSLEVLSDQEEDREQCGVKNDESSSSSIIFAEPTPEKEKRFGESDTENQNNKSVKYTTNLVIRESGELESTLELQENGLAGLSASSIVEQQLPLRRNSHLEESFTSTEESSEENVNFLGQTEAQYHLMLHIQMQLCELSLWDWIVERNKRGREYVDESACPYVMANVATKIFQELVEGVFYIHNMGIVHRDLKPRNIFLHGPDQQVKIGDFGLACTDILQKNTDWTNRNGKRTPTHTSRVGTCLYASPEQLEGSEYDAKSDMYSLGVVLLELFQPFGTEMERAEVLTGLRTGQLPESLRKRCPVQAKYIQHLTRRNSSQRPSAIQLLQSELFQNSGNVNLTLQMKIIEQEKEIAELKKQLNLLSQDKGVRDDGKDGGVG

Consider `CN(C)C/C=C/C(=O)Nc1ccc(C(=O)N2CCCC(Nc3ncc(Cl)c(-c4c[nH]c5ccccc45)n3)C2)cc1` (centres undefined), for which, in test [1], the % of control was found to be 88%.

On to `N#Cc1cccc(-c2c[nH]c3ncnc(N4CCOCC4)c23)c1`, for which the % of control in test [2] came out at 100%; in test [3] it was 95%.

For `O[C@H]1CC[C@H](Nc2ncc3nc(Nc4c(F)cc(F)cc4F)n([C@H]4CCOC4)c3n2)CC1`, the % of control in test [4] was determined as 100%.
